# Measurements: ChEMBL document CHEMBL1201862, “PubChem BioAssay data set” (2004)
#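 48-hour exposure; five concentrations; linearly interpolated endpoints. At the GI50, growth is halved.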 Active and inactive are the calls of the source. No stated cut-off is given here; in the data, active = GI50 up to about 1.1 µM and inactive = higher.
# Tests used:
# Test in all cases: inhibition of tumour cell growth, NCI panel, 48 h
# A498 = tested on: A498
# ACHN = tested on: ACHN
# HOP-62 = tested on: HOP-62
# IGROV-1 = tested on: IGROV-1
# KM12 = tested on: KM12
# M19-MEL = tested on: M19-MEL
# NCI-H226 = tested on: NCI-H226
# NCI-H23 = tested on: NCI-H23
# NCI-H460 = tested on: NCI-H460
# OVCAR-5 = tested on: OVCAR-5
# RPMI-8226 = tested on: RPMI-8226
# SF-268 = tested on: SF-268
# SK-MEL-28 = tested on: SK-MEL-28
# UACC-62 = tested on: UACC-62
# RXF 393 = tested on: RXF 393
# SNB-75 = tested on: SNB-75
# SR = tested on: SR
# Hs-578T = tested on: Hs-578T
# MDA-N = tested on: MDA-N
# PC-3 = tested on: PC-3
SMILES,GI50 (A498),GI50 (ACHN),GI50 (HOP-62),GI50 (IGROV-1),GI50 (KM12),GI50 (M19-MEL),GI50 (NCI-H226),GI50 (NCI-H23),GI50 (NCI-H460),GI50 (OVCAR-5),GI50 (RPMI-8226),GI50 (SF-268),GI50 (SK-MEL-28),GI50 (UACC-62),GI50 (RXF 393),GI50 (SNB-75),GI50 (SR),GI50 (Hs-578T),GI50 (MDA-N),GI50 (PC-3)
CNC(=O)OCc1c2ccncc2c(C)c2c1[nH]c1ccc(OC)cc12,0.176 µM (active),0.193 µM (active),0.156 µM (active),0.284 µM (active),0.573 µM (active),0.344 µM (active),0.179 µM (active),0.115 µM (active),0.19 µM (active),0.247 µM (active),0.183 µM (active),0.161 µM (active),0.605 µM (active),0.16 µM (active),,,,,,
Cc1nc2c(s/c(=N\N)n2-c2ccccc2)c(=O)n1C,> 100 µM (inactive),> 100 µM (inactive),,> 100 µM (inactive),80.2 µM (inactive),> 100 µM (inactive),> 100 µM (inactive),> 100 µM (inactive),> 100 µM (inactive),> 100 µM (inactive),> 100 µM (inactive),> 100 µM (inactive),> 100 µM (inactive),> 100 µM (inactive),> 100 µM (inactive),> 100 µM (inactive),> 100 µM (inactive),,,
O=C(O)CNS(=O)(=O)c1ccc(NC(=O)c2cccc([N+](=O)[O-])c2)cc1,> 100 µM (inactive),> 100 µM (inactive),,> 100 µM (inactive),> 100 µM (inactive),> 100 µM (inactive),> 100 µM (inactive),> 100 µM (inactive),> 100 µM (inactive),> 100 µM (inactive),> 100 µM (inactive),> 100 µM (inactive),> 100 µM (inactive),> 100 µM (inactive),> 100 µM (inactive),> 100 µM (inactive),,,,
C/C=C1\CN2CCc3c([nH]c4ccccc34)C2C=C1CCO (stereo not drawn),,> 340 µM (inactive),> 340 µM (inactive),> 340 µM (inactive),> 340 µM (inactive),> 340 µM (inactive),> 340 µM (inactive),> 340 µM (inactive),> 340 µM (inactive),> 340 µM (inactive),> 340 µM (inactive),> 340 µM (inactive),> 340 µM (inactive),> 340 µM (inactive),> 340 µM (inactive),,> 340 µM (inactive),,,
O=C1C(=O)C(Br)(Br)C(Br)=C1Br,,15.9 µM (inactive),> 100 µM (inactive),38.1 µM (inactive),12.9 µM (inactive),19.1 µM (inactive),,> 10 µM (inactive),34 µM (inactive),13.6 µM (inactive),22.3 µM (inactive),> 10 µM (inactive),15.6 µM (inactive),18.5 µM (inactive),> 10 µM (inactive),14.4 µM (inactive),,,,
COC1OC(COS(=O)(=O)c2ccc(C)cc2)C(O)C(OS(=O)(=O)c2ccc(C)cc2)C1OS(=O)(=O)c1ccc(C)cc1 (stereo not drawn),,> 100 µM (inactive),> 100 µM (inactive),> 100 µM (inactive),> 100 µM (inactive),> 100 µM (inactive),> 100 µM (inactive),> 100 µM (inactive),> 100 µM (inactive),> 100 µM (inactive),> 100 µM (inactive),> 100 µM (inactive),> 100 µM (inactive),,> 100 µM (inactive),95.9 µM (inactive),> 100 µM (inactive),,,
C=C1C(C)C2C(Cc3ccccc3)NC(=O)C23OC(=O)/C=C\CC(=O)CCC(C)C/C=C/C3C1O (stereo not drawn),1.37 µM (inactive),,2 µM (inactive),3.42 µM (inactive),2.88 µM (inactive),4.3 µM (inactive),1.92 µM (inactive),3.1 µM (inactive),5.85 µM (inactive),8.69 µM (inactive),,1.66 µM (inactive),1.39 µM (inactive),2.45 µM (inactive),0.43 µM (active),0.413 µM (active),,,,
CCOC(=O)NC(=O)c1cn(CCOCCOC(=O)NCCCCCCNC(=O)OCCOCCn2cc(C(=O)NC(=O)OCC)c(=O)[nH]c2=O)c(=O)[nH]c1=O,> 100 µM (inactive),> 100 µM (inactive),> 100 µM (inactive),> 100 µM (inactive),> 100 µM (inactive),> 100 µM (inactive),,> 100 µM (inactive),> 100 µM (inactive),> 100 µM (inactive),> 100 µM (inactive),> 100 µM (inactive),> 100 µM (inactive),> 100 µM (inactive),> 100 µM (inactive),> 100 µM (inactive),> 100 µM (inactive),,,
CCOC(=O)Cn1nnc2cc(Nc3nc4ccccc4nc3C(=O)OCC)ccc21,46.1 µM (inactive),> 100 µM (inactive),24.4 µM (inactive),> 100 µM (inactive),> 100 µM (inactive),,> 100 µM (inactive),> 100 µM (inactive),> 100 µM (inactive),> 100 µM (inactive),> 100 µM (inactive),22.5 µM (inactive),> 100 µM (inactive),> 100 µM (inactive),18.6 µM (inactive),4.21 µM (inactive),> 100 µM (inactive),36.5 µM (inactive),> 100 µM (inactive),> 100 µM (inactive)
N#CNc1nc(N)c(-c2ccc(Cl)cc2)c(C(=O)Nc2nccs2)n1,> 100 µM (inactive),> 100 µM (inactive),> 100 µM (inactive),> 100 µM (inactive),> 100 µM (inactive),> 100 µM (inactive),> 100 µM (inactive),> 100 µM (inactive),> 100 µM (inactive),> 100 µM (inactive),> 100 µM (inactive),> 100 µM (inactive),> 100 µM (inactive),> 100 µM (inactive),> 100 µM (inactive),> 100 µM (inactive),,,,
NS(=O)(=O)c1ccc(NC(=O)c2cccc3c(Nc4ccc(S(N)(=O)=O)cc4)c4ccccc4nc23)cc1,> 100 µM (inactive),> 100 µM (inactive),> 100 µM (inactive),> 100 µM (inactive),4.47 µM (inactive),21.4 µM (inactive),,87.5 µM (inactive),> 100 µM (inactive),> 100 µM (inactive),9.25 µM (inactive),15.5 µM (inactive),> 100 µM (inactive),31.8 µM (inactive),52.5 µM (inactive),14.3 µM (inactive),,,,
CCO/C([O-])=C(\C(=O)c1ccccc1)[n+]1c(C)n(C)c2ccccc21,> 100 µM (inactive),,> 100 µM (inactive),> 100 µM (inactive),> 100 µM (inactive),> 100 µM (inactive),> 100 µM (inactive),> 100 µM (inactive),> 100 µM (inactive),> 100 µM (inactive),> 100 µM (inactive),> 100 µM (inactive),> 100 µM (inactive),> 100 µM (inactive),> 100 µM (inactive),> 100 µM (inactive),,,,
CC(=O)n1c2ccccc2c2nc3nc(Oc4ccc(C)cc4)c4ccccc4c3cc21,,> 100 µM (inactive),57 µM (inactive),> 100 µM (inactive),> 100 µM (inactive),> 100 µM (inactive),> 100 µM (inactive),21.8 µM (inactive),> 100 µM (inactive),> 100 µM (inactive),> 100 µM (inactive),92.3 µM (inactive),> 100 µM (inactive),> 100 µM (inactive),,44.2 µM (inactive),> 100 µM (inactive),,,
COC(=O)c1ccc(Cl)cc1NC(=O)C1CCCCC1,,> 100 µM (inactive),,,> 100 µM (inactive),> 100 µM (inactive),> 100 µM (inactive),> 100 µM (inactive),,> 100 µM (inactive),> 100 µM (inactive),> 100 µM (inactive),> 100 µM (inactive),,20.3 µM (inactive),,> 100 µM (inactive),,,
C1C[N+]23CCC[N+]2(C1)CCC3 (stereo not drawn),> 100 µM (inactive),> 100 µM (inactive),> 100 µM (inactive),> 100 µM (inactive),> 100 µM (inactive),> 100 µM (inactive),> 100 µM (inactive),> 100 µM (inactive),> 100 µM (inactive),> 100 µM (inactive),,> 100 µM (inactive),> 100 µM (inactive),> 100 µM (inactive),> 100 µM (inactive),97.5 µM (inactive),,,,
O=C1CCC2(c3ccc(Cl)cc3)Nc3cc(Cl)ccc3N12 (stereo not drawn),12.1 µM (inactive),10.4 µM (inactive),15.5 µM (inactive),13.6 µM (inactive),12 µM (inactive),12.8 µM (inactive),,10.9 µM (inactive),,,16.4 µM (inactive),12.4 µM (inactive),12.4 µM (inactive),8.97 µM (inactive),11.9 µM (inactive),12.2 µM (inactive),5.9 µM (inactive),,,
CC(=O)[C@H]1CC[C@H]2[C@@H]3CCC4=CC(=O)CC[C@]4(C)[C@H]3CC[C@]12C [PROGESTERONE],24.5 µM (inactive),26 µM (inactive),20.6 µM (inactive),24.4 µM (inactive),16.7 µM (inactive),,11.7 µM (inactive),18.1 µM (inactive),18.6 µM (inactive),19.5 µM (inactive),3.24 µM (inactive),23.2 µM (inactive),18.4 µM (inactive),14.7 µM (inactive),22.4 µM (inactive),26.1 µM (inactive),> 100 µM (inactive),3.3 µM (inactive),16.7 µM (inactive),14.4 µM (inactive)
